What was measured:
[1] = tested on: nephroblastoma cells G401; test: Cell viability assay (live cell count) on cultured nephroblastoma cells G401; type: cell-based; conditions: cisplatin 500 nM once a day, combination with electromagnetic field 2 hours a day, FIG. 5
Description: (§1) Cell Lines and Methods of Culture: Nephroblastoma cells G401, adherent cells, were cultured in McCoy's medium with 10% fetal bovine serum at 37° C. in an incubator containing 5% carbon dioxide and saturated water vapor. Cell viability assay: G141 cells were seeded into 6-well plates at a density of 1×10^5 cells/well. […] Statistical Analysis: Each irradiation conditions repeated three times, each three holes, the results were mean±standard error, the results do T test, with P<0.05 as a significant difference in indicators.

[2] = tested on: neuroblastoma cells CHLA255; test: Cell viability assay (live cell count) on cultured neuroblastoma cells CHLA255; type: cell-based; conditions: cisplatin 500 nM once a day, combination with electromagnetic field 2 hours a day, FIG. 6
Description: as §1, with “Neuroblastoma cells, CHLA255, which are” for “Nephroblastoma cells G401,”, “are grown in 37° C. incubator with 10% fetal calf serum” for “were cultured”, “medium” for “medium with 10% fetal bovine serum at 37° C. in an incubator”, “Neuroblastoma cells, CHLA255,” for “G141 cells”, “in” for “into”

Nephroblastoma G401 = test: Tumor growth inhibition in vivo, G401 nephroblastoma model in nude mice; conditions: cisplatin 20 mg/kg three times a week, irradiation about 90 minutes a day, P<0.05, FIG. 9
Text: Example 7: G401 nephroblastoma model was established in nude mice and the animals were randomly divided into 4 groups with 8 mice in each group. […] Tumor models were established: Male nude mice were infants aged 3-4 weeks old. Nephroblastoma G401 was inoculated into the axilla and the number was 5×10^6/volume. The volume was 200 microliters. After one week of inoculation, the tumor could be touched. The animals were randomized groups, control group, irradiation group, cisplatin group, combined groups, treated separately. […] The control animals were placed in the animals irradiated with electromagnetic field-free coils for 90 minutes every day, and injected intraperitoneally with the same volume of physiology Saline; all animals were sacrificed 3 days after the neck, the eyeball to take whole blood, EDTA anticoagulant, after centrifugation to take the biochemical indicators of blood plasma, remove underarm growth tumor, weighed tumor weight, tissue cryopreservation. Statistical analysis: Each group of 8 animals, the results were mean±standard deviation, the results of T test, P<0.05 as a significant difference in indicators.

## N.N.[Cl][Pt][Cl] [cisplatin]
[1]
  cell inhibition rate: increase
  cell proliferation (number of cells): slow proliferation
[2]
  cell inhibition rate: increase
  cell proliferation (number of cells): slow proliferation
Nephroblastoma G401
  tumor weight compared with the control group: no significant difference
